In patent US7674767B2, “Nanoparticle compositions of water-soluble drugs for oral administration and preparation methods thereof” (Samyang Corporation, priority 2003, dated 2010):

Assay: Gastrointestinal absorption test, blood concentration of ceftriaxone after intra-duodenal administration
Assay type: in vivo, Sprague Dawley rat
Conditions: intra-duodenal 40 mg/kg, normal rats
Experimental: Normal rat (Sprague Dawley, male, weighing about 200 g) was ether-anesthetized, and the abdomen was opened. The duodenum was taken and the nanoparticle liquid formulation containing ceftriaxone was administered thereto at 40 mg/kg as ceftriaxone.
The formulations of Examples 6 and Example 7, and Comparative Example 5 were used for test groups. The formulation of Comparative Example 5 is one containing neither ceftriaxone-counter-ion complex nor polymer, and so having lower drug entrapping rate and incapable of controlling drug dissolution compared with that of Example 6.
Blood was gathered from tail vein at 0, 0.5, 1, 1.5, 2, 3 and 4 hours after the drug administration, and analyzed according to ceftriaxone analysis method of the US Pharmacopoeia. The blood was centrifuged at 3000 rpm for 10 minutes, and pretreated by adding the equal amount of acetonitrile thereto.
As reference group 1, ceftriaxone dissolved in water was administered at 40 mg/kg via the same route as Example 6.
As reference group 2, ceftriaxone dissolved in a physiological saline was intravenously injected at 20 mg/kg.

- absorption of ceftriaxone in vivo: not nearly absorbed
SMILES: CO/N=C(\C(=O)N[C@@H]1C(=O)N2C(C(=O)O)=C(CSc3nc(=O)c(=O)[nH]n3C)CS[C@H]12)c1csc(N)n1 [aqueous solution of ceftriaxone, ceftriaxone]
